The target of this assay is NS3 (Hepatitis C virus, UniProt A3EZJ3). In words: Inhibitory activity hepatitis C virus NS3 protease. Set-up: species or system Hepacivirus hominis.
Sequence of NS3 (A3EZJ3 whole entry): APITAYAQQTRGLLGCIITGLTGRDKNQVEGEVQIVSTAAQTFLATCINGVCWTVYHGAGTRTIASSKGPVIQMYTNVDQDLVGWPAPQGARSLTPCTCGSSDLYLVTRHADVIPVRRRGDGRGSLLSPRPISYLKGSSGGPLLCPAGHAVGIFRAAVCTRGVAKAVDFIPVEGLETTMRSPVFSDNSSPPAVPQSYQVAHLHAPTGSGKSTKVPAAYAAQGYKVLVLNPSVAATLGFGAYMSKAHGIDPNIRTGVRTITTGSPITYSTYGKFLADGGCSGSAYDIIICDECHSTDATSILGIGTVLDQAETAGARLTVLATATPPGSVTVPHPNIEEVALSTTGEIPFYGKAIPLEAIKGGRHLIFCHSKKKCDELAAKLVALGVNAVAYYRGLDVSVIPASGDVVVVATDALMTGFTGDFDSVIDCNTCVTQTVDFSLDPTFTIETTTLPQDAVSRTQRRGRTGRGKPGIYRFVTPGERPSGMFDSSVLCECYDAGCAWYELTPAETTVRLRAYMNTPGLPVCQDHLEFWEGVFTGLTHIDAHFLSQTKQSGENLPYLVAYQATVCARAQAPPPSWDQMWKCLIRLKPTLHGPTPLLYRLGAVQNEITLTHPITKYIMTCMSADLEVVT

`CC[C@H](NC(=O)[C@@H]1C[C@@](C)(NC(=O)Nc2cccc(C(=O)OC)c2)c2ncc(NCc3cccc(C(F)(F)F)c3)c(=O)n21)B1OC2C3CC(C[C@]2(C)O1)C3(C)C` (some centres not stated) gave an IC50 of 1770 nM. Under `CC[C@H](NC(=O)[C@@H]1C[C@@](C)(NC(=O)Nc2ccccc2Cl)c2ncc(NCc3cccc(C(F)(F)F)c3)c(=O)n21)B1OC2C3CC(C[C@]2(C)O1)C3(C)C` (some centres not stated) stands 370 nM. In the case of `CC[C@H](NC(=O)[C@@H]1C[C@@](C)(NC(=O)Cc2ccccc2)c2ncc(NCc3cccc(C(F)(F)F)c3)c(=O)n21)B1OC2C3CC(C[C@]2(C)O1)C3(C)C` (some centres not stated), 2400 nM corresponded to half-maximal inhibition (IC50). The same measure for `CC[C@H](NC(=O)[C@@H]1C[C@@](C)(CC(=O)Nc2nccc3ccccc23)c2ncc(NCc3cccc(C(F)(F)F)c3)c(=O)n21)B1OC2C3CC(C[C@]2(C)O1)C3(C)C` (some centres not stated): 440 nM; for `CC[C@H](NC(=O)[C@@H]1C[C@@](C)(NC(=O)Oc2ccccc2)c2ncc(NCc3cccc(C(F)(F)F)c3)c(=O)n21)B1OC2C3CC(C[C@]2(C)O1)C3(C)C` (some centres not stated): 1400 nM. As to `CC[C@H](NC(=O)[C@@H]1C[C@@](C)(CC(=O)Nc2ccccc2C(N)=O)c2ncc(NCc3cccc(C(F)(F)F)c3)c(=O)n21)B1OC2C3CC(C[C@]2(C)O1)C3(C)C` (some centres not stated), the 50% inhibitory concentration (IC50) was 150 nM.

In the case of `CCOC(=O)c1ccccc1NC(=O)N[C@]1(C)C[C@@H](C(=O)N[C@@H](CC)B2OC3C4CC(C[C@]3(C)O2)C4(C)C)n2c1ncc(NCc1cccc(C(F)(F)F)c1)c2=O` (some centres not stated), half-maximal inhibition (IC50) was put at 100 nM. With `CC[C@H](NC(=O)[C@@H]1CCc2ncc(NCc3cccc(C(F)(F)F)c3)c(=O)n21)B1OC2C3CC(C[C@]2(C)O1)C3(C)C` (some centres not stated), the IC50 came to 7000 nM. The same measure for `CC[C@H](NC(=O)[C@@H]1C[C@@](C)(NC(=O)Nc2cccc3ccccc23)c2ncc(NCc3cccc(C(F)(F)F)c3)c(=O)n21)B1OC2C3CC(C[C@]2(C)O1)C3(C)C` (some centres not stated): 270 nM; for `CC[C@H](NC(=O)[C@@H]1C[C@@](C)(NC(=O)Nc2ccc(Cl)cc2)c2ncc(NCc3cccc(C(F)(F)F)c3)c(=O)n21)B1OC2C3CC(C[C@]2(C)O1)C3(C)C` (some centres not stated): 1100 nM. Under `CC[C@H](NC(=O)[C@@H]1C[C@@](C)(CC(=O)Nc2cccc3ccccc23)c2ncc(NCc3cccc(C(F)(F)F)c3)c(=O)n21)B1OC2C3CC(C[C@]2(C)O1)C3(C)C` (some centres not stated) stands 170 nM; under `CC[C@H](NC(=O)[C@@H]1C[C@@](C)(CC(=O)Nc2ccccc2[N+](=O)[O-])c2ncc(NCc3cccc(C(F)(F)F)c3)c(=O)n21)B1OC2C3CC(C[C@]2(C)O1)C3(C)C` (some centres not stated), 2530 nM.

On to `CCOC(=O)c1cccc(NC(=O)N[C@]2(C)C[C@@H](C(=O)N[C@@H](CC)B3OC4C5CC(C[C@]4(C)O3)C5(C)C)n3c2ncc(NCc2cccc(C(F)(F)F)c2)c3=O)c1` (some centres not stated), for which the IC50 turned out to be 1550 nM. The same measure for `CC[C@H](NC(=O)[C@@H]1C[C@@](C)(NC(=O)Nc2ccccc2Oc2ccccc2)c2ncc(NCc3cccc(C(F)(F)F)c3)c(=O)n21)B1OC2C3CC(C[C@]2(C)O1)C3(C)C` (some centres not stated): 300 nM; for `CC[C@H](NC(=O)[C@@H]1C[C@@](C)(CC(=O)Nc2ccccc2)c2ncc(NCc3cccc(C(F)(F)F)c3)c(=O)n21)B1OC2C3CC(C[C@]2(C)O1)C3(C)C` (some centres not stated): 170 nM; for `CC[C@H](NC(=O)[C@@H]1C[C@@](C)(CC(=O)Nc2ccccc2C(=O)NC)c2ncc(NCc3cccc(C(F)(F)F)c3)c(=O)n21)B1OC2C3CC(C[C@]2(C)O1)C3(C)C` (some centres not stated): 180 nM. The same measure for `CC[C@H](NC(=O)[C@@H]1C[C@@](C)(NC(=O)Nc2ccccc2-c2ccccc2)c2ncc(NCc3cccc(C(F)(F)F)c3)c(=O)n21)B1OC2C3CC(C[C@]2(C)O1)C3(C)C` (some centres not stated): 30000 nM; for `CC[C@H](NC(=O)[C@@H]1C[C@@](C)(CC(=O)Nc2ccccc2C(=O)N(C)C)c2ncc(NCc3cccc(C(F)(F)F)c3)c(=O)n21)B1OC2C3CC(C[C@]2(C)O1)C3(C)C` (some centres not stated): 1460 nM. Under `CC[C@H](NC(=O)[C@@H]1C[C@@](C)(NC(=O)c2ccccc2)c2ncc(NCc3cccc(C(F)(F)F)c3)c(=O)n21)B1OC2C3CC(C[C@]2(C)O1)C3(C)C` (some centres not stated) stands 3400 nM.

Molecule `CC[C@H](NC(=O)[C@@H]1C[C@@](C)(NC(=O)Nc2ccc(F)cc2)c2ncc(NCc3cccc(C(F)(F)F)c3)c(=O)n21)B1OC2C3CC(C[C@]2(C)O1)C3(C)C` (some centres not stated) came in with a 50% inhibitory concentration (IC50) of 1030 nM.

Regarding `CC[C@H](NC(=O)[C@@H]1C[C@@](C)(CC(=O)Nc2ccccc2C(=O)OC)c2ncc(NCc3cccc(C(F)(F)F)c3)c(=O)n21)B1OC2C3CC(C[C@]2(C)O1)C3(C)C` (some centres not stated), the half-maximal inhibitory concentration (IC50) is 100 nM.

In turn, `CC[C@H](NC(=O)[C@@H]1C[C@@](C)(NC(=O)Nc2ccccc2SC)c2ncc(NCc3cccc(C(F)(F)F)c3)c(=O)n21)B1OC2C3CC(C[C@]2(C)O1)C3(C)C` (some centres not stated) displayed an IC50 of 710 nM. The same measure for `CC[C@H](NC(=O)[C@@H]1C[C@@](C)(NC(=O)Nc2ccccc2)c2ncc(NCc3cccc(C(F)(F)F)c3)c(=O)n21)B1OC2C3CC(C[C@]2(C)O1)C3(C)C` (some centres not stated): 790 nM; for `CC[C@H](NC(=O)[C@@H]1C[C@@](C)(NC(=O)Nc2ccccc2C)c2ncc(NCc3cccc(C(F)(F)F)c3)c(=O)n21)B1OC2C3CC(C[C@]2(C)O1)C3(C)C` (some centres not stated): 780 nM; for `CC[C@H](NC(=O)[C@@H]1C[C@@](C)(NC(=O)Nc2ccccc2C(=O)OC)c2ncc(NCc3cccc(C(F)(F)F)c3)c(=O)n21)B1OC2C3CC(C[C@]2(C)O1)C3(C)C` (some centres not stated): 80 nM. `CC[C@H](NC(=O)[C@@H]1C[C@@](C)(NC(=O)Nc2cccc(F)c2)c2ncc(NCc3cccc(C(F)(F)F)c3)c(=O)n21)B1OC2C3CC(C[C@]2(C)O1)C3(C)C` (some centres not stated) returned a concentration for half-maximal inhibition (IC50) of 500 nM. The same measure for `CC[C@H](NC(=O)[C@@H]1C[C@@](C)(NC(=O)Nc2ccccc2OC)c2ncc(NCc3cccc(C(F)(F)F)c3)c(=O)n21)B1OC2C3CC(C[C@]2(C)O1)C3(C)C` (some centres not stated): 360 nM; for `CC[C@H](NC(=O)[C@@H]1C[C@@](C)(NC(=O)NCc2ccccc2)c2ncc(NCc3cccc(C(F)(F)F)c3)c(=O)n21)B1OC2C3CC(C[C@]2(C)O1)C3(C)C` (some centres not stated): 1200 nM; for `CCOC(=O)c1ccc(NC(=O)N[C@]2(C)C[C@@H](C(=O)N[C@@H](CC)B3OC4C5CC(C[C@]4(C)O3)C5(C)C)n3c2ncc(NCc2cccc(C(F)(F)F)c2)c3=O)cc1` (some centres not stated): 1100 nM. The same measure for `CC[C@H](NC(=O)[C@@H]1C[C@@](C)(CC(=O)Nc2ccccc2OC)c2ncc(NCc3cccc(C(F)(F)F)c3)c(=O)n21)B1OC2C3CC(C[C@]2(C)O1)C3(C)C` (some centres not stated): 200 nM. On to `CC[C@H](NC(=O)[C@@H]1C[C@@](C)(CC(=O)Nc2cccc(SC)c2)c2ncc(NCc3cccc(C(F)(F)F)c3)c(=O)n21)B1OC2C3CC(C[C@]2(C)O1)C3(C)C` (some centres not stated), for which it took 90 nM to reach half-maximal inhibition (IC50). Turning to `CCOc1ccccc1NC(=O)N[C@]1(C)C[C@@H](C(=O)N[C@@H](CC)B2OC3C4CC(C[C@]3(C)O2)C4(C)C)n2c1ncc(NCc1cccc(C(F)(F)F)c1)c2=O` (some centres not stated), the concentration for half-maximal inhibition (IC50) was found to be 160 nM.

Molecule `CC[C@H](NC(=O)[C@@H]1C[C@@](C)(NC(=O)Nc2cccc(SC)c2)c2ncc(NCc3cccc(C(F)(F)F)c3)c(=O)n21)B1OC2C3CC(C[C@]2(C)O1)C3(C)C` (some centres not stated) yielded an IC50 of 130 nM. The molecule `CC[C@H](NC(=O)[C@@H]1C[C@@](C)(NC(=O)Nc2ccccc2C(=O)O)c2ncc(NCc3cccc(C(F)(F)F)c3)c(=O)n21)B1OC2C3CC(C[C@]2(C)O1)C3(C)C` (some centres not stated) showed a half-inhibitory concentration (IC50) of 6400 nM. The same measure for `CC[C@H](NC(=O)[C@@H]1C[C@@](C)(NC(=O)Nc2ccccc2[N+](=O)[O-])c2ncc(NCc3cccc(C(F)(F)F)c3)c(=O)n21)B1OC2C3CC(C[C@]2(C)O1)C3(C)C` (some centres not stated): 180 nM; for `CC[C@H](NC(=O)[C@@H]1C[C@@](C)(NC(=O)Nc2ccc(Oc3ccccc3)cc2)c2ncc(NCc3cccc(C(F)(F)F)c3)c(=O)n21)B1OC2C3CC(C[C@]2(C)O1)C3(C)C` (some centres not stated): 4740 nM; for `CC[C@H](NC(=O)[C@@H]1C[C@@](C)(NC(=O)Nc2ccc(SC)cc2)c2ncc(NCc3cccc(C(F)(F)F)c3)c(=O)n21)B1OC2C3CC(C[C@]2(C)O1)C3(C)C` (some centres not stated): 2360 nM.

As a reminder, the IC50 is the concentration at which inhibition is half-maximal.

The record behind these values is ChEMBL document CHEMBL1136606, “Design and synthesis of bicyclic pyrimidinone-based HCV NS3 protease inhibitors” (Bioorg Med Chem Lett, 2003).
